Reference: PubChem BioAssay AID624167 (Sanford-Burnham Center for Chemical Genomics, 2012)
Calls of active or inactive are those of the source.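 Rule for the calls: active = mean IC50 for reducing PEG3 promoter reporter signal at or below a set limit, with IC50 above the limit in both counter screens; inactive = the rest, including counter screen hits.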

Legend:
Test in all cases: Peg3 promoter luciferase inhibitors, potency, dose response, cell-based, HeLa, CREF/GAPDH counter-screen panel (AID 624167)
PEG-3 [1] = biological target: PEG-3 (UniProt Q6IN02); details: HeLa PEG-Prom luciferase reporter, overnight, CREF/GAPDH counter-screens, mean of runs
PEG-3 (UniProt Q6IN02), sequence (Q6IN02 whole entry, looked up): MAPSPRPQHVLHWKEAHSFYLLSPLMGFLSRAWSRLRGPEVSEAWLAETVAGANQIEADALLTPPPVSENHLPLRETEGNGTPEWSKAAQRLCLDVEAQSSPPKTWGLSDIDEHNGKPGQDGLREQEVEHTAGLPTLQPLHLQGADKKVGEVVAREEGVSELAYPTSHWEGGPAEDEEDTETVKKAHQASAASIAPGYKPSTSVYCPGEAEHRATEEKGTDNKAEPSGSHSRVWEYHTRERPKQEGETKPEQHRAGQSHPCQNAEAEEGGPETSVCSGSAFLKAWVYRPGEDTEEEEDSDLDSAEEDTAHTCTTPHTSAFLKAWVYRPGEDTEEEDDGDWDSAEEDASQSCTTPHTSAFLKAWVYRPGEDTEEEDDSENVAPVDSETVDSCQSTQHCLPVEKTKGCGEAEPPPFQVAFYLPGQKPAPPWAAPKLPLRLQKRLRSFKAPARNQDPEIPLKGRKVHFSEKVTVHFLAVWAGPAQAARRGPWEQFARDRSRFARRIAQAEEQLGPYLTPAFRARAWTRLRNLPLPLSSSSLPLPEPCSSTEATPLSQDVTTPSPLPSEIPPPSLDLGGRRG

PEG-3 [2] = details: HeLa PEG-Prom luciferase reporter, overnight, CREF/GAPDH counter-screens
Rat fibroblasts (CREF) = details: CREF/GAPDH counter-screens
[3] = run 1, dose range 1, individual replicate IC50 per panel
[4] = run 2, dose range 1, individual replicate IC50 per panel

SMILES | IC50 (PEG-3 [1]) | IC50 (PEG-3 [2]; [3]) | IC50 (PEG-3 [2]; [4]) | IC50 (Rat fibroblasts (CREF); mean of runs) | IC50 (Rat fibroblasts (CREF); [3]) | IC50 (Rat fibroblasts (CREF); [4])
O=C(Nc1cc(S(=O)(=O)N2CCOCC2)ccc1Cl)c1cc([N+](=O)[O-])ccc1Cl | 8460 nM | 14800 nM | 2160 nM | 19000 nM | 31800 nM | 6140 nM
CCCS(=O)(=O)c1cnc(C2COc3ccccc3O2)nc1N (configuration not stated) | 3780 nM | 2520 nM | 5040 nM | 10800 nM | 9070 nM | 12500 nM
c1ccc(-c2noc(-c3ccc4c(c3)OCO4)n2)nc1 | 818 nM | 622 nM | 1010 nM | 694 nM | 309 nM | 1080 nM
Oc1c(I)cc(Cl)c2cccnc12 | 15700 nM | 7910 nM | 23500 nM | 17900 nM | 15700 nM | 20200 nM
S=C(NN=C(c1ccccc1)c1ccccn1)N(Cc1ccccn1)Cc1ccccn1 | 2190 nM | 2580 nM | 1800 nM | 6990 nM | 4590 nM | 9400 nM
CCN(CCCl)c1cc(CN(C)C)cc(NC(=O)c2ccc(C(=O)Nc3cc(CN(C)C)cc(N(CC)CCCl)c3)cc2)c1 | 1120 nM | 1600 nM | 642 nM | 7530 nM | 14300 nM | 800 nM
C(=Cc1cnc2ccccc2n1)c1ccc2c(c1)OCO2 | 1490 nM | 1700 nM | 1270 nM | 1120 nM | 1020 nM | 1210 nM
Cc1ccc(-c2nc(-c3ccccn3)no2)cc1Cl | 1640 nM | 1190 nM | 2090 nM | 1310 nM | 1220 nM | 1400 nM
COc1cc(SC)ccc1C(=O)Nc1nc(C)cs1 | 2110 nM | 1690 nM | 2520 nM | 516 nM | 542 nM | 490 nM
NC1=C(Br)C(=O)c2ncccc2C1=O | 3100 nM | 3310 nM | 2900 nM | 2200 nM | 2190 nM | 2200 nM
COCCn1c(C)cc(C(=O)CSc2nnc(C)s2)c1C | 9400 nM | 5440 nM | 13400 nM | 8780 nM | 6790 nM | 10800 nM
CN(C)c1ccc(/C=C(\C#N)c2ccccn2)cc1 | 4320 nM | 4250 nM | 4380 nM | 639 nM | 531 nM | 747 nM
CCC(=O)NC(c1cccs1)c1cc(Cl)c2cccnc2c1O (configuration not stated) | 4680 nM | 4970 nM | 4390 nM | 842 nM | < 100000 nM | 842 nM
O=C(O)c1cccc(COc2ccc3c(c2)CCC3)c1 | 1350 nM | 823 nM | 1880 nM | 10300 nM | 10700 nM | 9920 nM
Cc1csc(NC(=O)c2cn3ccccc3n2)n1 | 4150 nM | 2680 nM | 5620 nM | 1090 nM | 1110 nM | 1070 nM
CC(=O)CSc1ccc(-c2nc3cc(C)c(C)cc3[nH]2)cn1 | 2020 nM | 2210 nM | 1840 nM | 2080 nM | 1790 nM | 2360 nM
CCOc1ccc(-c2ccc(SC)nn2)cc1 | 4150 nM | 2870 nM | 5430 nM | 473 nM | 313 nM | 632 nM
CC(C)(C)C(=O)Nc1ccc(NC(=O)c2ccco2)nc1 | 2580 nM | 4900 nM | 246 nM | 435 nM | 224 nM | 646 nM
COc1cccc2nc3c(C(=O)NCCN(C)C)cccc3cc12 | 9140 nM | 11200 nM | 7030 nM | 8720 nM | 12000 nM | 5440 nM
N=c1n(CCN2CCCCC2)c2ccccc2n1CC(O)c1ccc(Cl)c(Cl)c1 (configuration not stated) | 9460 nM | 10100 nM | 8800 nM | 14200 nM | 13600 nM | 14800 nM
CCn1nc(C)cc1-c1nnc(Sc2ncc([N+](=O)[O-])s2)n1C | 6370 nM | 8650 nM | 4090 nM | 4870 nM | 5310 nM | 4430 nM
Cc1cc(C2=NNC(=NC3CC3)SC2)c(C)n1-c1ccccc1F | < 200 nM | < 200 nM | < 200 nM | 3300 nM | 2720 nM | 3890 nM

Further lines, with some results ahead:

IC50 (PEG-3 [1]) | SMILES | IC50 (PEG-3 [2]; [3]) | IC50 (PEG-3 [2]; [4]) | IC50 (Rat fibroblasts (CREF); mean of runs) | IC50 (Rat fibroblasts (CREF); [3]) | IC50 (Rat fibroblasts (CREF); [4])
491 nM | Cc1nn(-c2nc3ccccc3[nH]2)c(=O)c2ccccc12 | 510 nM | 471 nM | 331 nM | 351 nM | 311 nM
4730 nM | Cc1cccc(CS(=O)(=O)c2ncc(Cl)c(C(=O)Nc3ccc(F)cc3)n2)c1 | 6010 nM | 3440 nM | 2020 nM | > 80000 nM | 2020 nM
7180 nM | O=C1C(Cl)=C(Nc2ccccc2)C(=O)c2ccccc21 | 12500 nM | 1900 nM | 7130 nM | 4480 nM | 9780 nM
8900 nM | COc1ccccc1CNCC(O)Cn1c2ccccc2c2ccccc21 (configuration not stated) | 10100 nM | 7690 nM | 16200 nM | 16700 nM | 15700 nM
1910 nM | COc1ccc(/C=C/c2nc3ccccc3n2C)cc1 | 1280 nM | 2540 nM | 3460 nM | 3410 nM | 3510 nM
2530 nM | COc1cccc(/C=N/NC(=O)c2ccc(-c3ccccc3)cc2)c1O | 3330 nM | 1730 nM | 24900 nM | 19600 nM | 30200 nM
1270 nM | O=C(OCC(F)(F)F)c1cccc(COc2ccc3ccccc3c2)c1 | 1140 nM | 1400 nM | 16100 nM | 14900 nM | 17300 nM
2590 nM | CCc1ccc(C(=O)Nc2nc3ccccc3[nH]2)cc1 | 2240 nM | 2950 nM | 476 nM | 298 nM | 654 nM
1540 nM | Cc1ccc(-c2nnc(SCC(=O)Nc3ccccc3F)o2)cc1 | 1450 nM | 1640 nM | 3270 nM | 3450 nM | 3080 nM
1760 nM | COc1ccc(C(=O)NNC(=O)c2ccccn2)cc1 | 2680 nM | 849 nM | 1650 nM | 1210 nM | 2090 nM
3240 nM | CCOc1ccc(NC(=O)Nc2cccc(C(=O)O)c2)cc1 | 2900 nM | 3580 nM | 4090 nM | 3070 nM | 5100 nM
359 nM | CCOc1ccc(OCc2cccc(C(=O)O)c2)cc1 | 232 nM | 487 nM | 3740 nM | 3880 nM | 3600 nM
6520 nM | COc1ccc(/C=N/Nc2nncc3ccccc23)cc1 | 4620 nM | 8430 nM | 835 nM | 957 nM | 712 nM
1850 nM | Cc1ccccc1OCC(=O)Nc1cccc(C(=O)O)c1 | 1600 nM | 2100 nM | 18400 nM | 35800 nM | 1110 nM
550 nM | C=CCn1c(C)cc(C(=O)CN2C(=O)c3ccccc3S2(=O)=O)c1C | 795 nM | 306 nM | 2710 nM | 1680 nM | 3730 nM
7480 nM | COC(CNC(=O)c1ccc2c3c(onc13)-c1ccccc1C2=O)OC | 9320 nM | 5650 nM | 18400 nM | 17600 nM | 19200 nM
535 nM | COc1ccccc1C(=O)Nc1nc2ccccc2[nH]1 | 707 nM | 362 nM | 280 nM | 226 nM | 335 nM
8110 nM | CCCSc1ccc2nc(-c3ccccc3)cn2c1 | 7010 nM | 9200 nM | 1530 nM | 1040 nM | 2030 nM
2730 nM | Cc1ccc(C(=O)Nc2ncc([N+](=O)[O-])s2)cc1 | 2010 nM | 3450 nM | 8850 nM | 5940 nM | 11800 nM
1750 nM | COc1ccc(C(=O)Nc2nc3ccccc3s2)c(OC)c1 | 2560 nM | 950 nM | 319 nM | 328 nM | 309 nM
inactive | CN1CCN(c2ccc(-c3ccc4ccccc4n3)cc2)CC1 | 7840 nM | > 100000 nM | 2360 nM | 2930 nM | 1790 nM
6270 nM | Cc1ccc(C(=O)CN2C(=O)c3ccccc3S2(=O)=O)cc1 | 6120 nM | 6430 nM | 8720 nM | 8770 nM | 8680 nM
10000 nM | CN(C)CCCN(C(=O)c1ccc(S(=O)(=O)N2CCc3ccccc3C2)cc1)c1nc2ccc(F)cc2s1 | 11300 nM | 8740 nM | 13400 nM | 9840 nM | 17000 nM
4930 nM | O=C(NCCc1ccccc1)c1ccc2c(c1)OCO2 | 3970 nM | 5890 nM | 6290 nM | 6890 nM | 5680 nM
1200 nM | Cc1c(C)c2ccc(OCC(=O)Nc3ccccn3)c(C)c2oc1=O | 1640 nM | 767 nM | 1650 nM | 1440 nM | 1860 nM
